This note sets out measurements from PubChem BioAssay AID1996.

Structures are written as SMILES. Converted amounts (≈) assume the structure as drawn.

The conditions of the series: buffer; pH 7.4; 200.0 µM.
In general, kinetic solubility refers to solubility judged after dilution from a stock solution rather than from solid. Compound `O=C(C1CCCO1)N(c1ccc(F)cc1)C1C=CS(=O)(=O)C1` (configuration not stated) displayed a solubility (kinetic) above 48.8 µg/mL.

For the compound `CC(CC(=O)O)CC(=O)Nc1cccc([N+](=O)[O-])c1` (configuration not stated), the kinetic solubility was above 39.9 µg/mL.

As to `CC(CN1CCCC1)OC(=O)c1ccccc1Cl.Cl` (configuration not stated), the solubility (kinetic) was above 45.6 µg/mL.

In turn, `CC1(C)C2CCC1(C)C(OC(=O)CNc1ccccc1)C2` (configuration not stated) returned a kinetic solubility of 4.2 µg/mL (≈ 14.6 µM).

For `CC(NCCC1(C(C)C)CCOC(C)(C)C1)c1cccs1` (configuration not stated), the kinetic solubility was above 46.4 µg/mL.

Compound `CCCN(CC(=O)Nc1ccccc1OC)C(=O)C1CCCC1` came in with a kinetic solubility above 47.8 µg/mL.

For the compound `O=S(=O)(CCN1CCN(c2ccccn2)CC1)c1ccc(F)cc1`, the solubility (kinetic) turned out to be 49 µg/mL (≈ 140 µM).

`CCCSC1=C(C#N)C(c2cccs2)CC(=O)N1` (configuration not stated) yielded a solubility (kinetic) of 33.7 µg/mL (≈ 121 µM). The solubility kinetic values of the last two compounds are within 1.5-fold of each other.

Take `CSc1ncccc1C(=O)N1CCN(C(=O)c2ccccc2)CC1`: the kinetic solubility is above 51.2 µg/mL.

With `Cc1c(-c2ccc(Cl)cc2)[n+](=O)c2c(n1[O-])CCCC2`, the kinetic solubility is above 43.6 µg/mL.

Consider `COc1ccccc1C(=O)NCCN1CCN(c2ccccc2)CC1.Cl`, for which the kinetic solubility stood at 52.7 µg/mL.

Turning to `C=CCNC(=O)/C(C#N)=C/c1ccc(C)o1`, the kinetic solubility was above 32.4 µg/mL.

As for `Cc1ccc(N2C(=O)CC(Sc3ncccn3)C2=O)cc1C` (configuration not stated), the kinetic solubility is 27.7 µg/mL (≈ 88.4 µM).

Regarding `O=C(CCC(=O)Nc1ccccc1)N/N=C/c1cccnc1`, the kinetic solubility is above 44.4 µg/mL.

Consider `Cc1ccc(C(=O)O)cc1NS(=O)(=O)c1ccc2ccccc2c1`, for which the kinetic solubility is above 51.2 µg/mL.

For `CC1C(=O)N2CCCc3cc(NC(=O)CC(C)(C)C)cc1c32` (configuration not stated), the solubility (kinetic) was found to be 39.7 µg/mL (≈ 132 µM).

Take `O=C(Cc1ccccc1)Nc1c(Cl)ccc2nsnc12`: the solubility (kinetic) was found to be 4.9 µg/mL (≈ 16.1 µM).

`CC1(C)Cc2c(C#N)c(N3CCNCC3)nc(-c3ccco3)c2CS1`: the kinetic solubility was 21.5 µg/mL (≈ 60.7 µM). Against the preceding compound, the solubility kinetic is about 4.4-fold higher.

With `O=C1NC(=S)N/C1=C/c1ccc2c(c1)OCO2`, the kinetic solubility amounted to 1.5 µg/mL (≈ 6.04 µM).

For `COc1ccccc1N1CC=C(c2cccc([N+](=O)[O-])c2)NC1=O`, the kinetic solubility was 39.8 µg/mL (≈ 122 µM). This solubility kinetic is about 27-fold higher than that of the compound before.

The compound `COc1ccc(/C=N/NC(N)=S)cc1` registered a solubility (kinetic) above 31.4 µg/mL.

Consider `Cc1cccc(NCc2ccc(N(C)C)cc2)n1`, for which the kinetic solubility worked out at 27.8 µg/mL (≈ 115 µM).

For the compound `CN(C)c1ccc(C(=O)N2CCN(C(=O)C3CCCO3)CC2)cc1` (configuration not stated), the kinetic solubility was above 49.7 µg/mL.

Turning to `CC(=O)NC1CCN(CC(=O)Nc2cccc([N+](=O)[O-])c2)CC1`, the kinetic solubility was 43.7 µg/mL (≈ 136 µM).

Compound `Cc1nc(C)c(C(=O)OCC(=O)NCc2ccccc2)s1` had a kinetic solubility above 45.7 µg/mL.

With `Cc1occc1C(=O)Nc1ccc([N+](=O)[O-])cc1Br`, the solubility (kinetic) was 1.7 µg/mL (≈ 5.23 µM).

`CN(C)c1c(N)c(=O)oc2ccccc12` came in with a kinetic solubility of 27.3 µg/mL (≈ 134 µM).

`CCNc1nc2c(c(=O)n(C)c(=O)n2C)n1CCCc1ccccc1` returned a kinetic solubility of 38.2 µg/mL (≈ 112 µM).

Take `CSCCC(=O)N1CCN(CC(=O)N2CCCC2)CC1`: the kinetic solubility is above 44.9 µg/mL.

In turn, `O=C(CNC(=O)c1cccs1)c1ccc(Cl)cc1` yielded a solubility (kinetic) of 26.4 µg/mL (≈ 94.4 µM).

As to `CCOC(=O)c1ccccc1NC(=O)Cc1ccc(OC)c(S(=O)(=O)N2CCOCC2)c1`, the solubility (kinetic) came out at 60.4 µg/mL (≈ 131 µM).

With `Cc1ccc(S(=O)(=O)N(C)c2ccc(OC(=O)c3cc(=O)[nH]c4ccccc34)cc2)cc1`, the kinetic solubility was found to be 2.7 µg/mL (≈ 6.02 µM).

For `O=C(Cc1cccs1)NC1CCCC1`, the kinetic solubility is above 31.4 µg/mL.

Consider `CC(C)CC(NC(N)=O)C(=O)NCCc1ccc(Cl)cc1` (configuration not stated), for which the kinetic solubility was above 46.8 µg/mL.

`Cc1onc(-c2c(Cl)cccc2Cl)c1C(O)c1ccccc1` (configuration not stated) displayed a solubility (kinetic) above 50.1 µg/mL.

`CC(C)c1ncc(C(O)c2ccccc2)n1C` (configuration not stated): the solubility (kinetic) is above 34.5 µg/mL.

The compound `Cc1ccc(C(=O)Nc2ccncc2)c(Cl)c1` gave a solubility (kinetic) above 37 µg/mL.

`Oc1ccccc1-c1nc2ccccc2nc1-c1ccccc1` came in with a solubility (kinetic) of 25.1 µg/mL (≈ 84.1 µM).

As for `Cc1ccc(CNS(=O)(=O)c2ccc([N+](=O)[O-])cc2)cc1`, the solubility (kinetic) is 1.8 µg/mL (≈ 5.88 µM).

With `O=C(CN1CCCC1)Nc1cccc(Cl)c1Cl`, the solubility (kinetic) was found to be 28.4 µg/mL (≈ 104 µM).

The compound `N#Cc1cc2c(=O)n3ccccc3nc2n(-c2ccc(Cl)cc2)c1=O` displayed a kinetic solubility of 1.4 µg/mL (≈ 4.01 µM).

Turning to `COc1ccccc1NC(=O)/C(=C/c1cccs1)NC(=O)c1ccco1`, the solubility (kinetic) was above 55.3 µg/mL.

In the case of `CC(=O)C1C(c2ccc(C)cc2)c2c(noc2C)CC1(C)O` (configuration not stated), the solubility (kinetic) was 42.2 µg/mL (≈ 141 µM).

With `O=C1Nc2ccccc2C1C(C[N+](=O)[O-])c1ccccn1` (configuration not stated), the kinetic solubility was above 42.5 µg/mL.

As to `CC(C)C(NC(=O)c1ccccc1F)C(=O)Nc1nccs1` (configuration not stated), the kinetic solubility turned out to be 48.2 µg/mL (≈ 150 µM).

Compound `N/C(=N\O)c1ccccc1-n1cccc1` had a solubility (kinetic) above 30.2 µg/mL.

In turn, `CC(C)(C)C(=O)CSc1ncccn1` displayed a solubility (kinetic) of 24.3 µg/mL (≈ 116 µM).

Compound `Cc1ccc(/C=C/C(=O)NC2CCS(=O)(=O)C2)cc1` (configuration not stated) returned a solubility (kinetic) of 40.2 µg/mL (≈ 144 µM).

In turn, `COCCCNc1nc2ccccc2[nH]c1=O` returned a kinetic solubility above 35 µg/mL.

Compound `Cc1cccc(CC(=O)NCCN2CCCCC2)c1` registered a kinetic solubility of 32.5 µg/mL (≈ 125 µM).

For `O=C(CNC(=O)N1CC(=O)Nc2ccccc21)Nc1ccccc1`, the solubility (kinetic) is above 48.7 µg/mL.

Compound `O=c1[nH]c2ccc(S(=O)(=O)Nc3ccc(Cl)cc3)cc2o1` gave a kinetic solubility above 48.7 µg/mL.
